Experimental data published in ChEMBL document CHEMBL1201862, “PubChem BioAssay data set” (2004).
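1) Cells in 96-well plates. 2) Compound, 48 h, 5 concentrations. 3) Linear interpolation between surrounding doses. 4) Unreached endpoint = highest concentration. GI50 = concentration required for 50% inhibition of growth.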 Active and inactive are the calls of the source. Cut-off read from the data, not from the text of the source: active = GI50 up to about 1.1 µM and inactive = higher.

What was measured:
Experiment in all cases: growth of human tumour cells (NCI), 48 h
[1] = test system: HL-60
[2] = test system: UO-31
[3] = test system: HCT-116
[4] = test system: SK-MEL-5
[5] = test system: HOP-92
[6] = test system: SR
[7] = test system: SF-295
[8] = test system: MCF7
[9] = test system: A549
[10] = test system: CCRF-CEM
[11] = test system: 786-0
[12] = test system: RPMI-8226
[13] = test system: HOP-62
[14] = test system: RXF 393
[15] = test system: NCI-H460
[16] = test system: IGROV-1
[17] = test system: SN12C
[18] = test system: MOLT-4
[19] = test system: OVCAR-3
[20] = test system: UACC-257

Measured: GI50

CC(C)NC(=O)OCc1c(COC(=O)NC(C)C)n(C)c2c1ccc1sccc12
inactive: [1] > 100 µM | [2] 9.14 µM | [3] 11.1 µM | [4] 9.29 µM | [5] 4.9 µM | [6] 4.19 µM | [7] 10 µM | [8] 13.5 µM | [9] > 36.6 µM | [10] 10.2 µM | [11] 6.35 µM | [12] 9.73 µM | [13] 20.9 µM | [14] 12.2 µM | [15] 5.33 µM | [16] 3.02 µM | [17] 15.9 µM | [18] 10.3 µM | [19] 15.7 µM | [20] 15.8 µM

CNC(=O)OC(COC)CN1CCN(c2ccccc2C)CC1 (stereo not given)
inactive: [1] > 10 µM | [2] > 10 µM | [3] > 10 µM | [4] > 10 µM | [5] > 10 µM | [6] > 10 µM | [7] > 10 µM | [8] > 10 µM | [9] > 10 µM | [10] > 10 µM | [11] > 10 µM | [12] > 10 µM | [13] > 10 µM | [14] > 10 µM | [15] > 10 µM | [16] > 10 µM | [17] > 10 µM | [18] > 10 µM | [19] > 10 µM | [20] > 10 µM

CCOC(=O)c1nc2ccccc2nc1Oc1ccc(OC)cc1
inactive: [1] > 100 µM | [2] > 100 µM | [3] > 100 µM | [4] > 100 µM | [5] > 100 µM | [6] > 100 µM | [7] > 100 µM | [8] > 100 µM | [9] > 100 µM | [10] > 100 µM | [11] > 100 µM | [12] > 100 µM | [13] > 100 µM | [14] > 100 µM | [15] > 100 µM | [16] > 100 µM | [17] > 100 µM | [18] > 100 µM | [19] > 100 µM | [20] > 100 µM

CCC1(C(=O)OC(C)(C)C)OC12C(C)CCCC2C (stereo not given)
inactive: [1] 17.8 µM | [2] 48.5 µM | [3] 52.8 µM | [4] 33.3 µM | [5] 34.2 µM | [6] 18.5 µM | [7] 38.4 µM | [8] 24.3 µM | [9] 34.8 µM | [10] 18.7 µM | [11] 40.6 µM | [12] 21.5 µM | [13] 48.9 µM | [14] 19.8 µM | [15] 31.9 µM | [16] > 100 µM | [17] 62.1 µM | [18] 18.7 µM | [19] 34.3 µM | [20] 31 µM

O=C1C(c2ccc([N+](=O)[O-])cc2)=C(Cl)C(=O)c2c(O)cccc21
inactive: [1] 4.12 µM | [2] 13.5 µM | [3] 27.9 µM | [4] 23.4 µM | [5] 19 µM | [6] > 100 µM | [7] > 54.1 µM | [8] 18.8 µM | [9] 97.7 µM | [10] 4.56 µM | [11] 15.5 µM | [12] 41.3 µM | [13] 34.4 µM | [14] 14.7 µM | [15] 52.8 µM | [16] 26.4 µM | [17] 22.3 µM | [18] 3.66 µM | [19] 17.7 µM | [20] 18.4 µM

CS(=O)(=O)N1CC(CCl)c2ccc(O)cc21 (stereo not given)
inactive: [1] 1.57 µM | [2] 2.32 µM | [3] 2.71 µM | [4] 1.55 µM | [5] 3.11 µM | [6] 2.84 µM | [7] 2.95 µM | [8] 1.98 µM | [9] 3.19 µM | [10] 1.58 µM | [11] 3.31 µM | [12] 2.03 µM | [13] 3.56 µM | [14] 1.4 µM | [15] 2.9 µM | [16] 2.07 µM | [17] 2.91 µM | [18] 2.09 µM | [19] 2.95 µM | [20] 2.44 µM
